This is an account of results in ChEMBL document CHEMBL5506027, “Discovery of a Novel and Potent Cyclin-Dependent Kinase 8/19 (CDK8/19) Inhibitor for the Treatment of Cancer” (J Med Chem, 2024).

Active and inactive are the calls of the source. The calls are words filed in the database; no cut-off is given here.

Series [1] in a line: Selectivity ratio of IC50 for CDK7/CyclinH/MAT1 (unknown origin) to IC50 for CDK8/Cyclin C (unknown origin).
Series [2] can be described thus: Selectivity ratio of IC50 for CDK2/CyclinA2 (unknown origin) to IC50 for CDK8/Cyclin C (unknown origin).
Series [3] in a line: Selectivity ratio of IC50 for CDK1/CyclinA2 (unknown origin) to IC50 for CDK8/Cyclin C (unknown origin).
A short description of series [4]: Selectivity ratio of IC50 for CDK5/p25NCK (unknown origin) to IC50 for CDK8/Cyclin C (unknown origin).
A short description of series [5]: Selectivity ratio of IC50 for CDK5/p35NCK (unknown origin) to IC50 for CDK8/Cyclin C (unknown origin).
The nature of series [6]: Tmax in mouse at 5 mg/kg, po measured upto 24 hrs by LC-MS/MS analysis. The note with it: in vivo. It is filed as ADME, organism-based.
Series [7] is described as follows: Dose normalized AUC in mouse at 5 mg/kg, po measured upto 24 hrs by LC-MS/MS analysis. It is filed as ADME, organism-based. Particulars: in vivo.
Series [8] is described as follows: Oral bioavailability in mouse at 5 mg/kg measured upto 24 hrs by LC-MS/MS analysis. Particulars: in vivo. It is filed as ADME, organism-based.
Series [9] can be described thus: AUC(0 to 24 hrs) in rat at 5 mg/kg, po measured upto 24 hrs by LC-MS/MS analysis. It is filed as ADME, organism-based. Particulars: in vivo.
The nature of series [10]: Tmax in dog at 3 mg/kg, po measured upto 24 hrs by LC-MS/MS analysis. The note with it: in vivo. It is filed as ADME, organism-based, Canis lupus familiaris.
Series [11] in a line: AUC(0 to 24 hrs) in dog at 3 mg/kg, po measured upto 24 hrs by LC-MS/MS analysis. The series is classed as ADME, organism-based, Canis lupus familiaris. The note with it: in vivo.
Another series addresses CDK8/Cyclin C (Homo sapiens, UniProt P49336). In words: Displacement of tracer 236 from CDK8/cyclin C (unknown origin) preincubated for 15 mins followed by tracer addition and measured after 60 mins by FRET based lanthascreen assay. It is filed as protein-complex assay.
In series [12] the test system is MV4-11. Briefly: Potency index, ratio of RVU120 IC50 to test compound IC50 for antiproliferative activity against human MV4-11 cells. The series is classed as functional.
In series [13] the target is Signal transducer and activator of transcription 1-alpha/beta (Homo sapiens) (UniProt P42224). In words: Induction of STAT1 (unknown origin) phosphorylation at Ser727 residues by Western blotting analysis. The note with it: filed as activator, dose 0.0032-10 µM.
Series [14] has as its target CDK2/Cyclin A2 (Homo sapiens) (UniProt P24941+P20248). Briefly: Inhibition of CDK2/CyclinA2 (unknown origin) at 1 uM by luminescence based assay relative to control. It is filed as protein-complex assay.
The species named for another series is Homo sapiens. In words: Inhibition of CDK1/CyclinA2 (unknown origin) at 1 uM by luminescence based assay relative to control.
The target of series [15] is CDK7/Cyclin H/MNAT1 (Homo sapiens) (UniProt P51946+P50613+P51948). In words: Inhibition of CDK7/cyclinH/MAT1 (unknown origin) at 1 uM by luminescence based assay relative to control. It is filed as protein-complex assay.
The target in series [16] is CDK1/Cyclin E (Homo sapiens) (UniProt P06493+P24864). Briefly: Inhibition of CDK1/cyclinE1 (unknown origin) at 1 uM by luminescence based assay relative to control. It is filed as protein-complex assay.
Series [17] has as its target CDK6/cyclin D1 (Homo sapiens) (UniProt P24385+Q00534). In words: Inhibition of CDK6/cyclinD1 (unknown origin) at 1 uM by luminescence based assay relative to control. It is filed as protein-complex assay.
The target of series [18] is CDK6/cyclin D3 (Homo sapiens) (UniProt P30281+Q00534). Briefly: Inhibition of CDK6/cyclinD3 (unknown origin) at 1 uM by luminescence based assay relative to control. The series is classed as protein-complex assay.
The target in series [19] is Cyclin-dependent kinase 8 (Homo sapiens, UniProt P49336). In words: Inhibition of CDK8 (unknown origin) assessed as residual activity at 500 nM by ADP-Glo assay.
Series [20] in a line: Tmax in mouse at 30 mg/kg, po measured upto 24 hrs by LC-MS/MS analysis. It is filed as ADME, organism-based. The note with it: in vivo.
Series [21] can be described thus: Cmax in mouse at 30 mg/kg, po measured upto 24 hrs by LC-MS/MS analysis. It is filed as ADME, organism-based. The note with it: in vivo.
A short description of series [22]: Dose normalized AUC in dog at 5 mg/kg, po measured upto 24 hrs by LC-MS/MS analysis. The series is classed as ADME, organism-based, Canis lupus familiaris. Particulars: in vivo.
Series [23] in a line: Tmax in monkey at 5 mg/kg, po measured upto 24 hrs by LC-MS/MS analysis. It is filed as ADME, organism-based, Macaca mulatta. The note with it: rhesus monkey, in vivo.
A short description of series [24]: Cmax in monkey at 5 mg/kg, po measured upto 24 hrs by LC-MS/MS analysis. The note with it: rhesus monkey, in vivo. It is filed as ADME, organism-based, Macaca mulatta.
The nature of series [25]: Clearance in monkey at 1 mg/kg, iv measured upto 24 hrs by LC-MS/MS anlaysis. The series is classed as ADME, organism-based, Macaca mulatta. Particulars: rhesus monkey, in vivo.
A short description of series [26]: Volume of distribution at steady state in monkey at 1 mg/kg, iv measured upto 24 hrs by LC-MS/MS anlaysis. The series is classed as ADME, organism-based, Macaca mulatta. Particulars: rhesus monkey, in vivo, read-out: Vdss.
A short description of series [27]: Half-life in monkey at 1 mg/kg, iv measured upto 24 hrs by LC-MS/MS anlaysis. The series is classed as ADME, organism-based, Macaca mulatta. Particulars: rhesus monkey, in vivo.
Series [28] has as its system MV4-11. In words: Antitumor activity against human MV4-11 cells xenografted in po dosed BALB/c nude mouse assessed as tumor growth inhibition measured twice a week for 3 weeks. The series is classed as functional, organism-based. The note with it: dose 3-10 mg/kg.
The next series deals with Mus musculus. Briefly: In vivo inhibition of STAT3 phosphorylation in BALB/c nude mouse tumor xenografted with human MV4-11 cells at 10 mg/kg, po qd for 3 weeks and measured 8 to 24 hrs post last dose. The note with it: time 22.0 day. It is filed as functional, organism-based.
For the next series, the system named is MDA-MB-231. In words: Inhibition of cell growth in human MDA-MB-231 cells. It is filed as functional, cell-based.
The subject of another series is Z-138. In words: Antitumor activity against human Z138 cells xenografted in po dosed CB17 SCID mouse assessed as tumor growth inhibition administered once daily for 21 days. The series is classed as functional, organism-based. The note with it: dose 2.5-5 mg/kg, time 21.0 day.
Series [29] is described as follows: Toxicity in CB17 SCID mouse xenografted with human Z138 cells assessed as change in body weight at 2.5 to 5 mg/kg, po qd for 3 weeks in presence of rituximab. Particulars: in vivo, 504 h, dose 2.5-5 mg/kg. It is filed as organism-based.

Chain of CDK8/Cyclin C (P49336 whole entry): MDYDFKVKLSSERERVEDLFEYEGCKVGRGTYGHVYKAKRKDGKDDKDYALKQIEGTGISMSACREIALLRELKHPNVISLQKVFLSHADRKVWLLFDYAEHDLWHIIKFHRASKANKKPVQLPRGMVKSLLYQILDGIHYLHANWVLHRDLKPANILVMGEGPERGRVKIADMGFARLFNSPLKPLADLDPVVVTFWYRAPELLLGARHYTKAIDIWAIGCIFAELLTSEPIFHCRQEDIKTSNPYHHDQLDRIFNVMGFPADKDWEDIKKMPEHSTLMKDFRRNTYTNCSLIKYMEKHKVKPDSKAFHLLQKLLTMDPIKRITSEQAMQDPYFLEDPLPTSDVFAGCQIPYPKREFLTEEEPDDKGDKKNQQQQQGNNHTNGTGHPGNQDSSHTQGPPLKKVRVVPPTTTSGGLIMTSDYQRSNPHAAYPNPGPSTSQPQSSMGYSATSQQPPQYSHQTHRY
Chain of CDK8/Cyclin C (P24863 whole entry, further chain): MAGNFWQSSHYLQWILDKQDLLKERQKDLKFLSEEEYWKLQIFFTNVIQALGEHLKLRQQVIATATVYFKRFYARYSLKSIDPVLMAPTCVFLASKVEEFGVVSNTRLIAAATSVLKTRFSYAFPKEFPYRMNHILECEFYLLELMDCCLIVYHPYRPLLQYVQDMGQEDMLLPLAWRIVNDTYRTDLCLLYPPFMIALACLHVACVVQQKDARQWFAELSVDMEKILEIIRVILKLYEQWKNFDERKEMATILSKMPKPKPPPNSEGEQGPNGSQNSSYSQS
Chain of Cyclin-dependent kinase 8 (P49336 whole entry): as the sequence (P49336 whole entry) above
Chain of Signal transducer and activator of transcription 1-alpha/beta (Homo sapiens) (P42224 whole entry): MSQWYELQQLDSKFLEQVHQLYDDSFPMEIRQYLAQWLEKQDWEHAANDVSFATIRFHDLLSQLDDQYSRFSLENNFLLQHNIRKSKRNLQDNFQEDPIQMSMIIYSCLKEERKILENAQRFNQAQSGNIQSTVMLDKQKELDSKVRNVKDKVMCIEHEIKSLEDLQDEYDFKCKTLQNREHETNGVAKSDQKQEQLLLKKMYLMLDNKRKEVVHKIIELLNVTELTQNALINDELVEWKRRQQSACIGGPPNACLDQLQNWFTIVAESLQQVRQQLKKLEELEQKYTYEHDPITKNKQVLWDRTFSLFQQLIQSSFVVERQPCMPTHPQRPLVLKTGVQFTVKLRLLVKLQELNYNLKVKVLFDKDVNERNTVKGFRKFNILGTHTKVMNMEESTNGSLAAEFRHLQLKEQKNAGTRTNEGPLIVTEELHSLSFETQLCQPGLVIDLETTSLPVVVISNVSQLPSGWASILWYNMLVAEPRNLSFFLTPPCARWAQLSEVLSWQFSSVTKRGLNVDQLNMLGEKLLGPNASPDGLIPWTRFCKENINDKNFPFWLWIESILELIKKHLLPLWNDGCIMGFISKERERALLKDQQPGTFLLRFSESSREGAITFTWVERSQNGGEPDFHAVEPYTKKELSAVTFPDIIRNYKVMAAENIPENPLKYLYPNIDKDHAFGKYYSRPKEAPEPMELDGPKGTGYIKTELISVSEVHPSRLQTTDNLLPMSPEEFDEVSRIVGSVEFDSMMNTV
Chain of CDK1/Cyclin E (Homo sapiens) (P06493 whole entry, looked up): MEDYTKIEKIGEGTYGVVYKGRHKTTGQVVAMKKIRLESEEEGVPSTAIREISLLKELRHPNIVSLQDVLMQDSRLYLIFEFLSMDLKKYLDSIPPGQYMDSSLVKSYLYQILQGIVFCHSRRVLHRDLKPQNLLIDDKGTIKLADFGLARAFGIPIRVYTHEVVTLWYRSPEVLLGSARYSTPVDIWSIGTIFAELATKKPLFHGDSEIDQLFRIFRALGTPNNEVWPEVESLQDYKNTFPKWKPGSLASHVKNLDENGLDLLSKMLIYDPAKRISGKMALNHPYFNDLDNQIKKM
Chain of CDK1/Cyclin E (Homo sapiens) (P24864 whole entry, looked up): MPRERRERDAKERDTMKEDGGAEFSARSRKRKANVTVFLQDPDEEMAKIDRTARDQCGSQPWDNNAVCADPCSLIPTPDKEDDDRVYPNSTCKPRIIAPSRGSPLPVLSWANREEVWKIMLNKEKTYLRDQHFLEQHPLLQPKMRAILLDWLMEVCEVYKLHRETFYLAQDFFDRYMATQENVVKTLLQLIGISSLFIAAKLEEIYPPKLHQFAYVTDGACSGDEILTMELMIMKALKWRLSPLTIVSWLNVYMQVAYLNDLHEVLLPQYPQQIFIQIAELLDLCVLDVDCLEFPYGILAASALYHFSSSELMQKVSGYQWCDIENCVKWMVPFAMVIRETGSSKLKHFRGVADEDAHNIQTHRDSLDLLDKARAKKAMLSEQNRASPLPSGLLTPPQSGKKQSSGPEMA

Turning to `Cc1c(Br)c(Br)c2c3c1nc(N1CCNCC1)n3CCC2` [SEL-120 FREE BASE], the Ratio IC50 in [1] was found to be 2.9; in series [2], 0.3; in [3], 1.2; in [4], 0.1; in series [5], 0.1. Further, the figures for the Tmax in series [6] and in series [10] were 1.3 h and 4.18 h, respectively. This compound gave an AUC/dose in series [7] of 270 ng·h/mL. This compound showed a F in series [8] of 155%. The AUC(0-t) at 24 h was determined as 56 ng·h/mL in series [9] and 2060 ng·h/mL in series [11].

Consider `FC(F)c1c(Br)c(Br)cc2c1nc(N1CCNCC1)n2C1CCOCC1`, for which the IC50 at CDK8/Cyclin C was 2.1 nM; in the series with MDA-MB-231, 40 nM. Also, the “Ratio IC50” value in the series with MV4-11 [12] amounted to 7. The Activity result in [13] is “Dose-Dependent Effect”; in series [19], 14%; in the series with MV4-11 [28], “Dose-Dependent Effect”; with Z-138 it was “Dose-Dependent Effect”; in series [29], “Non-Toxic”. In addition, the inhibition in [14] came to 84.9%; in the series filed under Homo sapiens, 76.2%; in [15] it was 74.4%; in series [16], 63.4%; in series [17] it was 19.4%; in series [18], 2.33%. Also, the Tmax in series [20] came to 1.5 h; in series [23] it was 4 h. Also, the Cmax in series [21] amounted to 2280 ng/mL; in series [24], 1100 ng/mL. Moreover, the AUC/dose in [22] stood at 1117 ng·h/mL. In series [25], this compound displayed a clearance of 13 mL/min/kg. Moreover, the Vd in series [26] was determined as 7.05 L/kg. Further, in [27], the half-life was 7 h. Moreover, the inhibition entry in the series on Mus musculus was “Active”.
